{"source": "patent US11739252B2", "about": "“Microbecidal composition and a method for mitigating internal microbiological influenced corrosion in petroleum transporting pipelines” (Indian Oil Corporation Limited, priority 2020, dated 2023)", "test_system": "MIC causing microbes", "assay": "Synergistic effect of components: antimicrobial screening against MIC causing microbes and their mediated corrosion", "format": "cell-based", "settings": "dosed at 10000 ppm", "description": "To test the MIC activity, the microbecidal composition was subjected to antimicrobial screening against MIC causing microbes and their mediated corrosion. 10 gram of muck sample from a pipeline having MIC was used as inoculum. The growth of the microbes was followed by visual observation as well as by counting the CFU/ml on respective media. The growth was compared with control i.e., without microbecidal composition. Further, individual components of the microbecidal composition were evaluated to evaluate the synergistic effect of the composition (Table 1). As observed from the Table-1 below, when the individual components of the microbecidal composition was used, no significant MIC reduction was observed."}
{"smiles": "CCO", "note": "[Alcohol]", "values": [{"measurement": "Percentage (%) reduction in MIC", "setting": "base corrosion rate 12 mpy", "result": 10, "unit": "%"}, {"measurement": "After dosing of Microbecidal composition (mpy)", "setting": "base corrosion rate without composition 12 mpy, muck sample inoculum", "result": 10.75, "unit": "mpy"}]}
